Key:
Assay type in all cases: in vivo
Scirpus juncoides = test: Test Example 1: herbicidal activity, application before weed generation in submerged conditions; conditions: Application herbicide amount 320 g/ha; Seventeenth Table
Method in brief: (§1)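 Pre-emergence application to water surface of submerged pots (4 cm depth, alluvial soil) on sowing day, with 2.5-leaf rice transplanted; emulsion diluted to g/ha rates. Grown in greenhouse at 25–30 °C; 0–5 herbicidal/crop-effect score after three weeks.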

[1] = tested on: Echinochloa oryzacola Vasing.; test: as above; conditions: Application herbicide amount 320 g/ha; Seventeenth Table
Method in brief: as §1

Monochoria vaginalis = test: as above; conditions: Application herbicide amount 320 g/ha; Seventeenth Table
Method in brief: as §1

[2] = tested on: directly sowed Oryza sativa; test: Test Example 4: effect on crop by application to foliage (diluvial soil, plastic box); conditions: for d (directly sowed Oryza sativa) effect on crop: application to foliage, application herbicide amount 320 g/ha; for d: Application herbicide amount 320 g/ha, effect on crop
Method in brief: (§2)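 Plants were grown in sterilized diluvial soil in a greenhouse at 25-30° C for 14 days, then sprayed on stems and leaves with water-diluted emulsion formulation at set rates in g/ha. Weed control and crop injury were scored 3 weeks after treatment on a 0-5 herbicidal-ratio scale, from 0 (≤5%) to 5 (≥90%).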

Triticum aestivum = test: as above; conditions: for e (Triticum aestivum) effect on crop: application to foliage, application herbicide amount 320 g/ha; for e: Application herbicide amount 320 g/ha, effect on crop
Method in brief: as §2

Glycine max = test: as above; conditions: for c (Glycine max) effect on crop: application to foliage, application herbicide amount 320 g/ha; for c: Application herbicide amount 320 g/ha, effect on crop
Method in brief: as §2

Zea mays = test: as above; conditions: for b (Zea mays) effect on crop: application to foliage, application herbicide amount 320 g/ha; for b: Application herbicide amount 320 g/ha, effect on crop
Method in brief: as §2

Brassica campestris L. = test: as above; conditions: for g (Brassica campestris L.) effect on crop: application to foliage, application herbicide amount 320 g/ha; for g: Application herbicide amount 320 g/ha, effect on crop
Method in brief: as §2

[3] = tested on: Beta vulgaris ssp. vulgaris; test: as above; conditions: for f (Beta vulgaris ssp. vulgaris) effect on crop: application to foliage, application herbicide amount 320 g/ha; for f: Application herbicide amount 320 g/ha, effect on crop
Method in brief: as §2

[4] = tested on: transplanted Oryza sativa; test: Test Example 1: effect on crop, application before weed generation in submerged conditions; conditions: Application herbicide amount 320 g/ha; Seventeenth Table
Method in brief: as §1

Compound	B: Scirpus juncoides (herbicidal effect grade) (Scirpus juncoides)	A: Echinochloa oryzicola Vasing. (herbicidal effect grade) [1]	C: Monochoria vaginalis (herbicidal effect grade) (Monochoria vaginalis)	d (directly sowed Oryza sativa) effect on crop [2]	e (Triticum aestivum) effect on crop (Triticum aestivum)	c (Glycine max) effect on crop (Glycine max)	b (Zea mays) effect on crop (Zea mays)	g (Brassica campestris L.) effect on crop (Brassica campestris L.)	f (Beta vulgaris ssp. vulgaris) effect on crop [3]	a: transplanted Oryza sativa (effect on crop grade) [4]	d [2]	e (Triticum aestivum)	c (Glycine max)	b (Zea mays)	g (Brassica campestris L.)	f [3]
Cc1nnc(NC(=O)c2ccc(C(F)(F)F)n3c(CC(=O)O)nnc23)o1 [1-048]	0 (Herbicidal ratio of 5% or less (almost no effect))	3 (Herbicidal ratio of 40% or more and less than 70%)	0 (Herbicidal ratio of 5% or less (almost no effect))	4 (Herbicidal ratio of 70% or more and less than 90%)	1 (Herbicidal ratio of 5% or more and less than 20%)	0 (Herbicidal ratio of 5% or less (almost no effect))	0 (Herbicidal ratio of 5% or less (almost no effect))	4 (Herbicidal ratio of 70% or more and less than 90%)	5 (Herbicidal ratio of 90% or more (almost completely withered))	1 (Herbicidal ratio of 5% or more and less than 20%)						
Cc1nnc(NC(=O)c2ccc(C(F)(F)F)n3c(CC(=O)OC(C)C)nnc23)o1 [1-049]	2 (Herbicidal ratio of 20% or more and less than 40%)	5 (Herbicidal ratio of 90% or more (almost completely withered))	0 (Herbicidal ratio of 5% or less (almost no effect))	3 (Herbicidal ratio of 40% or more and less than 70%)	1 (Herbicidal ratio of 5% or more and less than 20%)	4 (Herbicidal ratio of 70% or more and less than 90%)	0 (Herbicidal ratio of 5% or less (almost no effect))	4 (Herbicidal ratio of 70% or more and less than 90%)	5 (Herbicidal ratio of 90% or more (almost completely withered))	0 (Herbicidal ratio of 5% or less (almost no effect))						
CC(C)c1nnc2c(C(=O)Nc3nnco3)ccc(C(F)(F)F)n12 [1-050]	5 (Herbicidal ratio of 90% or more (almost completely withered))	5 (Herbicidal ratio of 90% or more (almost completely withered))	4 (Herbicidal ratio of 70% or more and less than 90%)	4 (Herbicidal ratio of 70% or more and less than 90%)	3 (Herbicidal ratio of 40% or more and less than 70%)	3 (Herbicidal ratio of 40% or more and less than 70%)	1 (Herbicidal ratio of 5% or more and less than 20%)	5 (Herbicidal ratio of 90% or more (almost completely withered))	5 (Herbicidal ratio of 90% or more (almost completely withered))	2 (Herbicidal ratio of 20% or more and less than 40%)						
CC(C)c1nnc2c(C(=O)Nc3nnc(C4CC4)o3)ccc(C(F)(F)F)n12 [1-051]	4 (Herbicidal ratio of 70% or more and less than 90%)	5 (Herbicidal ratio of 90% or more (almost completely withered))	4 (Herbicidal ratio of 70% or more and less than 90%)	1 (Herbicidal ratio of 5% or more and less than 20%)	1 (Herbicidal ratio of 5% or more and less than 20%)	0 (Herbicidal ratio of 5% or less (almost no effect))	0 (Herbicidal ratio of 5% or less (almost no effect))	1 (Herbicidal ratio of 5% or more and less than 20%)	3 (Herbicidal ratio of 40% or more and less than 70%)	0 (Herbicidal ratio of 5% or less (almost no effect))						
COCCc1nnc(NC(=O)c2ccc(C(F)(F)F)n3c(C(C)C)nnc23)o1 [1-052]	3 (Herbicidal ratio of 40% or more and less than 70%)	3 (Herbicidal ratio of 40% or more and less than 70%)	2 (Herbicidal ratio of 20% or more and less than 40%)	2 (Herbicidal ratio of 20% or more and less than 40%)	0 (Herbicidal ratio of 5% or less (almost no effect))	0 (Herbicidal ratio of 5% or less (almost no effect))	0 (Herbicidal ratio of 5% or less (almost no effect))	3 (Herbicidal ratio of 40% or more and less than 70%)	3 (Herbicidal ratio of 40% or more and less than 70%)	0 (Herbicidal ratio of 5% or less (almost no effect))						
Cc1nnc(NC(=O)c2ccc(C(F)F)n3c(C(C)C)nnc23)o1 [1-053]	3 (Herbicidal ratio of 40% or more and less than 70%)	2 (Herbicidal ratio of 20% or more and less than 40%)	2 (Herbicidal ratio of 20% or more and less than 40%)	3 (Herbicidal ratio of 40% or more and less than 70%)	0 (Herbicidal ratio of 5% or less (almost no effect))	0 (Herbicidal ratio of 5% or less (almost no effect))	0 (Herbicidal ratio of 5% or less (almost no effect))	1 (Herbicidal ratio of 5% or more and less than 20%)	3 (Herbicidal ratio of 40% or more and less than 70%)	0 (Herbicidal ratio of 5% or less (almost no effect))						
Cc1nnc(NC(=O)c2ccc(C(F)(F)F)n3c(-c4ccc(Cl)nc4)nnc23)o1 [1-054]	3 (Herbicidal ratio of 40% or more and less than 70%)	5 (Herbicidal ratio of 90% or more (almost completely withered))	4 (Herbicidal ratio of 70% or more and less than 90%)							2 (Herbicidal ratio of 20% or more and less than 40%)	3 (Herbicidal ratio of 40% or more and less than 70%)	3 (Herbicidal ratio of 40% or more and less than 70%)	1 (Herbicidal ratio of 5% or more and less than 20%)	0 (Herbicidal ratio of 5% or less (almost no effect))	4 (Herbicidal ratio of 70% or more and less than 90%)	4 (Herbicidal ratio of 70% or more and less than 90%)
Cc1nnc(NC(=O)c2ccc(C(F)(F)F)n3c(-c4cccc(Cl)n4)nnc23)o1 [1-055]	4 (Herbicidal ratio of 70% or more and less than 90%)	4 (Herbicidal ratio of 70% or more and less than 90%)	4 (Herbicidal ratio of 70% or more and less than 90%)							1 (Herbicidal ratio of 5% or more and less than 20%)	3 (Herbicidal ratio of 40% or more and less than 70%)	1 (Herbicidal ratio of 5% or more and less than 20%)	0 (Herbicidal ratio of 5% or less (almost no effect))	0 (Herbicidal ratio of 5% or less (almost no effect))	4 (Herbicidal ratio of 70% or more and less than 90%)	5 (Herbicidal ratio of 90% or more (almost completely withered))
Cc1cc(-c2nnc3c(C(=O)Nc4nnc(C)o4)ccc(C(F)(F)F)n23)n(C)n1 [1-056]	5 (Herbicidal ratio of 90% or more (almost completely withered))	5 (Herbicidal ratio of 90% or more (almost completely withered))	4 (Herbicidal ratio of 70% or more and less than 90%)							3 (Herbicidal ratio of 40% or more and less than 70%)	4 (Herbicidal ratio of 70% or more and less than 90%)	1 (Herbicidal ratio of 5% or more and less than 20%)	4 (Herbicidal ratio of 70% or more and less than 90%)	4 (Herbicidal ratio of 70% or more and less than 90%)	5 (Herbicidal ratio of 90% or more (almost completely withered))	5 (Herbicidal ratio of 90% or more (almost completely withered))
Cc1nnc(NC(=O)c2ccc(C(F)(F)F)n3c(-c4cccs4)nnc23)o1 [1-057]	5 (Herbicidal ratio of 90% or more (almost completely withered))	5 (Herbicidal ratio of 90% or more (almost completely withered))	4 (Herbicidal ratio of 70% or more and less than 90%)							2 (Herbicidal ratio of 20% or more and less than 40%)	3 (Herbicidal ratio of 40% or more and less than 70%)	0 (Herbicidal ratio of 5% or less (almost no effect))	1 (Herbicidal ratio of 5% or more and less than 20%)	0 (Herbicidal ratio of 5% or less (almost no effect))	3 (Herbicidal ratio of 40% or more and less than 70%)	5 (Herbicidal ratio of 90% or more (almost completely withered))

From patent US9708314B2, “Heterocyclic amide compound” (NISSAN CHEMICAL INDUSTRIES, LTD., priority 2013, dated 2017)
